The record followed here is patent US20230071840A1, “HETEROCYCLIC GLP-1 AGONISTS” (Gasherbrum Bio, Inc., priority 2020, published 2023).

GLP-1 Receptor, sequence (P43220 24-463, species assumed): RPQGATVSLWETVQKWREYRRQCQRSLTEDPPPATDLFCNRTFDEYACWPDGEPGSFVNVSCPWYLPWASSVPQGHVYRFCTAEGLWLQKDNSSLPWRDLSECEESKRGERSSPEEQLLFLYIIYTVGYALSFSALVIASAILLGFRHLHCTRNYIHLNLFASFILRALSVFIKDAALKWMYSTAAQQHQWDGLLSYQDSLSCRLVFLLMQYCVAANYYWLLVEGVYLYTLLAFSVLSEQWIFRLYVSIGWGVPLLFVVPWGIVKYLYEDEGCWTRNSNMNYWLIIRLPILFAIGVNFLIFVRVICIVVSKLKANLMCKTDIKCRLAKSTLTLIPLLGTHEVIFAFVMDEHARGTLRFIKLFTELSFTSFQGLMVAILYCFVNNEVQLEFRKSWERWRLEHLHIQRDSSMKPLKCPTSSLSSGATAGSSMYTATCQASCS

The first assay deals with GLP-1 Receptor (Homo sapiens, UniProt P43220). In words: GLP-1R agonist cAMP stimulation assay (HEK293/GLP1R/CRE-LUC cells, cAMP dynamic 2 kit). Particulars: HEK293/CRE-Luc cell line stably expressing the GLP-1 Receptor; 30 min incubation at 37° C.; read-out: GLP1R cAMP Stimulation DR: EC50. In kind it is cell-based. On the procedure:
Activation of GLP-1 receptor is known to stimulate cyclic AMP (cAMP) production in cells which indicates primary coupling to the Gas subunit of the G protein heterotrimeric complex.
To optimize functional activity directed toward Gas coupling, a HEK293/CRE-Luc cell line developed by HDB stably expressing the GLP-1 Receptor was used. […] Seal the plate and incubate at 37° C. with 5% CO2 for 30 min.
After incubation the cAMP assay signal was generated using cAMP dynamic 2 Kit (Cisbio). 5 μL cAMP-d2 working solution was added to each well, followed with 5 μL Anti-cAMP antibody-cryptate working solution added to each well using ThermoFisher Multidrop Combi. Incubate at room temperature for 1 hour protected from light.
% Activity=[…]×(mean RLU of test sample−mean RLU of vehicle control)/(mean RLU of MAX control−mean RLU of vehicle control))
For the compound `O=C(O)c1ccc2nc(CN3CCC(Oc4cccc(Cc5ccc(Cl)cc5)c4F)CC3)n(C[C@@H]3CCO3)c2n1` [Compound 157a, 2-[(4-{3-[(4-chlorophenyl)methyl]-2-fluorophenoxy}piperidin-1-yl)methyl]-3-{[(2S)-oxetan-2-yl]methyl}-3H-imidazo[4,5-b]pyridine-5-carboxylic acid], the EC50 was 42 nM. On the same count and under the same terms, to `O=C(O)c1ccc2nc(CN3CCC(Oc4cccc(Cc5ccc(Cl)cc5)c4Cl)CC3)n(C[C@@H]3CCO3)c2n1` [Compound 158a, 2-[(4-{2-chloro-3-[(4-chlorophenyl)methyl]phenoxy}piperidin-1-yl)methyl]-3-{[(2S)-oxetan-2-yl]methyl}-3H-imidazo[4,5-b]pyridine-5-carboxylic acid] belongs above 1000 nM; to `O=C(O)c1ccc2nc(CN3CCC(Oc4ccnc(Cc5ccc(Cl)cc5)c4)CC3)n(C[C@@H]3CCO3)c2n1` [Compound 159a, 2-{[4-({2-[(4-chlorophenyl)methyl]pyridin-4-yl}oxy)piperidin-1-yl]methyl}-3-{[(2S)-oxetan-2-yl]methyl}-3H-imidazo[4,5-b]pyridine-5-carboxylic acid], 2.3 nM. Turning to `O=C(O)c1ccc2nc(CN3CCC(Oc4ccnc(Cc5ccc(Cl)cc5F)n4)CC3)n(C[C@@H]3CCO3)c2c1` [Compound 160a, 2-{[4-({2-[(4-chloro-2-fluorophenyl)methyl]pyrimidin-4-yl}oxy)piperidin-1-yl]methyl}-1-{[(2S)-oxetan-2-yl]methyl}-1H-1,3-benzodiazole-6-carboxylic acid], the EC50 was determined as 0.12 nM. Take `O=C(O)c1cnc2nc(CN3CCC(Oc4ccnc(Cc5ccc(Cl)cc5F)n4)CC3)n(C[C@@H]3CCO3)c2c1` [Compound 161a, 2-{[4-({2-[(4-chloro-2-fluorophenyl)methyl]pyrimidin-4-yl}oxy)piperidin-1-yl]methyl}-1-{[(2S)-oxetan-2-yl]methyl}-1H-imidazo[4,5-b]pyridine-6-carboxylic acid]: the EC50 was determined as 0.18 nM. In the case of `N#CC1(Cn2c(CN3CCC(Oc4ccnc(Cc5ccc(Cl)cc5F)n4)CC3)nc3ccc(C(=O)O)cc32)CC1` [Compound 162, 2-{[4-({2-[(4-chloro-2-fluorophenyl)methyl]pyrimidin-4-yl}oxy)piperidin-1-yl]methyl}-1-[(1-cyanocyclopropyl)methyl]-1H-1,3-benzodiazole-6-carboxylic acid], the EC50 was 0.075 nM. Consider `O=C(O)c1ccc2nc(CN3CCC(Oc4ccnc(Cc5ccc(C(F)(F)F)cc5F)n4)CC3)n(C[C@@H]3CCO3)c2n1` [Compound 163a, 2-({4-[(2-{[2-fluoro-4-(trifluoromethyl)phenyl]methyl}pyrimidin-4-yl)oxy]piperidin-1-yl}methyl)-3-{[(2S)-oxetan-2-yl]methyl}-3H-imidazo[4,5-b]pyridine-5-carboxylic acid], for which the EC50 amounted to 0.11 nM. On to `O=C(O)c1ccc2nc(CN3CCC(Oc4ccnc(Cc5ccc(Cl)cc5Cl)n4)CC3)n(C[C@@H]3CCO3)c2n1` [Compound 164a, 2-{[4-({2-[(2,4-dichlorophenyl)methyl]pyrimidin-4-yl}oxy)piperidin-1-yl]methyl}-3-{[(2S)-oxetan-2-yl]methyl}-3H-imidazo[4,5-b]pyridine-5-carboxylic acid], for which the EC50 was found to be 0.11 nM. The same measure, in the same setting: to `O=C(O)c1ccc2nc(CN3CCC(Oc4ccnc(Cc5ccc(Cl)cc5C(F)(F)F)n4)CC3)n(C[C@@H]3CCO3)c2n1` [Compound 166a, 2-({4-[(2-{[4-chloro-2-(trifluoromethyl)phenyl]methyl}pyrimidin-4-yl)oxy]piperidin-1-yl}methyl)-3-{[(2S)-oxetan-2-yl]methyl}-3H-imidazo[4,5-b]pyridine-5-carboxylic acid] belongs 1 nM; to `O=C(O)c1ccc2nc(CN3CCC(Oc4ccnc(Cc5ccc(Cl)c(Cl)c5)n4)CC3)n(C[C@@H]3CCO3)c2n1` [Compound 167a, 2-{[4-({2-[(3,4-dichlorophenyl)methyl]pyrimidin-4-yl}oxy)piperidin-1-yl]methyl}-3-{[(2S)-oxetan-2-yl]methyl}-3H-imidazo[4,5-b]pyridine-5-carboxylic acid], 0.13 nM; to `O=C(O)c1ccc2nc(CN3CCC(Oc4ccnc(Cc5ccc(Cl)cc5F)n4)C(F)(F)C3)n(C[C@@H]3CCO3)c2n1` (stereo partly drawn) [Compound 168a, 2-{[4-({2-[(4-chloro-2-fluorophenyl)methyl]pyrimidin-4-yl}oxy)-3,3-difluoropiperidin-1-yl]methyl}-3-{[(2S)-oxetan-2-yl]methyl}-3H-imidazo[4,5-b]pyridine-5-carboxylic acid], 1.2 nM. Still for that read-out and setting: then `O=C(O)c1ccc2nc(CN3CCC(C(F)(F)c4cccc(Cc5ccc(Cl)cc5F)n4)CC3)n(C[C@@H]3CCO3)c2n1` [Compound 173a, 2-{[4-({6-[(4-chloro-2-fluorophenyl)methyl]pyridin-2-yl}difluoromethyl)piperidin-1-yl]methyl}-3-{[(2S)-oxetan-2-yl]methyl}-3H-imidazo[4,5-b]pyridine-5-carboxylic acid], with 3.8 nM; and `O=C(O)c1ccc2nc(C[C@H]3CC[C@@H](Oc4cccc(Cc5ccc(Cl)cc5F)n4)CC3)n(C[C@@H]3CCO3)c2n1` [Compound 174a, 3-{[(2S)-oxetan-2-yl]methyl}-2-{[cis-4-({6-[(4-chloro-2-fluorophenyl)methyl]pyridin-2-yl}oxy)cyclohexyl]methyl}-3H-imidazo[4,5-b]pyridine-5-carboxylic acid], with 29 nM.

For the compound `O=C(O)c1ccc2nc(C[C@H]3CC[C@H](Oc4cccc(Cc5ccc(Cl)cc5F)n4)CC3)n(C[C@@H]3CCO3)c2n1` [Compound 174b, 3-{[(2S)-oxetan-2-yl]methyl}-2-{[trans-4-({6-[(4-chloro-2-fluorophenyl)methyl]pyridin-2-yl}oxy)cyclohexyl]methyl}-3H-imidazo[4,5-b]pyridine-5-carboxylic acid], the EC50 worked out at 0.14 nM.

In the case of `O=C(O)c1ccc2nc(C[C@H]3CC[C@@H](Oc4ccnc(Cc5ccc(Cl)cc5F)n4)CC3)n(C[C@@H]3CCO3)c2n1` [Compound 175a, 3-{[(2S)-oxetan-2-yl]methyl}-2-{[cis-4-({2-[(4-chloro-2-fluorophenyl)methyl]pyrimidin-4-yl}oxy)cyclohexyl]methyl}-3H-imidazo[4,5-b]pyridine-5-carboxylic acid], the EC50 came to 230 nM. The same measure, in the same setting: to `O=C(O)c1ccc2nc(C[C@H]3CC[C@H](Oc4ccnc(Cc5ccc(Cl)cc5F)n4)CC3)n(C[C@@H]3CCO3)c2n1` [Compound 175b, 3-{[(2S)-oxetan-2-yl]methyl}-2-{[trans-4-({2-[(4-chloro-2-fluorophenyl)methyl]pyrimidin-4-yl}oxy)cyclohexyl]methyl}-3H-imidazo[4,5-b]pyridine-5-carboxylic acid] belongs 0.063 nM; to `O=C(O)c1ccc2nc(C[C@H]3CC[C@H](Oc4ccnc(Cc5ccc(Cl)cc5)n4)CC3)n(C[C@@H]3CCO3)c2c1` [Compound 176a, 1-{[(2S)-oxetan-2-yl]methyl)-2-{[trans-4-({2-[(4-chlorophenyl)methyl]pyrimidin-4-yl}oxy)cyclohexyl]methyl}-1H-1,3-benzodiazole-6-carboxylic acid], 0.37 nM; to `O=C(O)c1ccc2nc(C[C@H]3CC[C@H](Oc4ccnc(Cc5ccc(Cl)cc5)n4)CC3)n(C[C@@H]3CCO3)c2n1` [Compound 177a, 3-{[(2S)-oxetan-2-yl]methyl}-2-{[trans-4-({2-[(4-chlorophenyl)methyl]pyrimidin-4-yl}oxy)cyclohexyl]methyl}-3H-imidazo[4,5-b]pyridine-5-carboxylic acid], 0.042 nM. Same read-out and setting: then `N#CC1(Cn2c(C[C@H]3CC[C@H](Oc4ccnc(Cc5ccc(Cl)cc5)n4)CC3)nc3ccc(C(=O)O)nc32)CC1` [Compound 178a, 3-[(1-cyanocyclopropyl)methyl]-2-{[trans-4-({2-[(4-chlorophenyl)methyl]pyrimidin-4-yl}oxy)cyclohexyl]methyl}-3H-imidazo[4,5-b]pyridine-5-carboxylic acid], with 0.1 nM.

Regarding `COCCn1c(C[C@H]2CC[C@H](Oc3ccnc(Cc4ccc(Cl)cc4)n3)CC2)nc2ccc(C(=O)O)nc21` [Compound 179a, 3-(2-methoxyethyl)-2-{[trans-4-({2-[(4-chlorophenyl)methyl]pyrimidin-4-yl}oxy)cyclohexyl]methyl}-3H-imidazo[4,5-b]pyridine-5-carboxylic acid], the EC50 was 2.8 nM. Same read-out and setting: to `Cn1c(C[C@H]2CC[C@H](Oc3ccnc(Cc4ccc(Cl)cc4)n3)CC2)nc2ccc(C(=O)O)nc21` [Compound 180a, 3-methyl-2-{[trans-4-({2-[(4-chlorophenyl)methyl]pyrimidin-4-yl}oxy)cyclohexyl]methyl}-3H-imidazo[4,5-b]pyridine-5-carboxylic acid] belongs 2.3 nM; to `O=C(O)c1ccc2nc(C[C@H]3CC[C@H](Oc4cccc(Cc5ccc(Cl)cc5)n4)CC3)n(C[C@@H]3CCO3)c2n1` [Compound 181a, 3-{[(2S)-oxetan-2-yl]methyl}-2-{[trans-4-({6-[(4-chlorophenyl)methyl]pyridin-2-yl}oxy)cyclohexyl]methyl}-3H-imidazo[4,5-b]pyridine-5-carboxylic acid], 0.083 nM; to `N#Cc1ccc(Cc2nccc(O[C@H]3CC[C@H](Cc4nc5ccc(C(=O)O)nc5n4C[C@@H]4CCO4)CC3)n2)cc1` [Compound 182a, 3-{[(2S)-oxetan-2-yl]methyl}-2-{[trans-4-({2-[(4-cyanophenyl)methyl]pyrimidin-4-yl}oxy)cyclohexyl]methyl}-3H-imidazo[4,5-b]pyridine-5-carboxylic acid], 0.07 nM.

The assay is the same for the next values; noted with them: HEK293/CRE-Luc cell line stably expressing the GLP-1 Receptor; 30 min incubation at 37° C.; read-out: GLP1R cAMP Stimulation DR: pEC50 (converted).
As for `O=C(O)c1ccc2nc(CN3CCC(Oc4ccnc(Cc5ccc(C(F)(F)F)cc5F)n4)CC3)n(C[C@@H]3CCO3)c2n1` [Compound 163a, 2-({4-[(2-{[2-fluoro-4-(trifluoromethyl)phenyl]methyl}pyrimidin-4-yl)oxy]piperidin-1-yl}methyl)-3-{[(2S)-oxetan-2-yl]methyl}-3H-imidazo[4,5-b]pyridine-5-carboxylic acid], the EC50 is 0.1 nM. On to `O=C(O)c1ccc2nc(CN3CCC(Oc4ccnc(Cc5ccc(Cl)cc5Cl)n4)CC3)n(C[C@@H]3CCO3)c2n1` [Compound 164a, 2-{[4-({2-[(2,4-dichlorophenyl)methyl]pyrimidin-4-yl}oxy)piperidin-1-yl]methyl}-3-{[(2S)-oxetan-2-yl]methyl}-3H-imidazo[4,5-b]pyridine-5-carboxylic acid], for which the EC50 is 0.1 nM.
